Test results from PubChem BioAssay AID248 (DTP/NCI, 2004).
Where “and” joins values, the source holds several entries; their conditions need not be identical. Equal values may be shown once. Inconclusive results and toxic doses are left out. No stated cut-off is given here; in the data, active means T/C of 150% or more; inactive means T/C below 125%.

System: L1210 leukemia ip in BDF1 mice, survival T/C
Experiment: NCI In Vivo Anticancer Drug Screen. Data for tumor model L1210 Leukemia (intraperitoneal) in B6D2F1 (BDF1) mice
Settings: endpoint: mean survival time, higher = longer survival
Outline: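 Tumor was transplanted into mice, which were then dosed with test compound or vehicle alone. Survival was recorded for each group, and the treated figure was expressed relative to the control figure.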

[1] = dose: 100.0 mg/kg/injection, schedule: Q01DX009 (ip), vehicle: saline
[2] = dose: 200.0 mg/kg/injection, schedule: Q01DX009 (ip), vehicle: saline
[3] = dose: 100.0 mg/kg/injection, schedule: Q01DX009 (ip), vehicle: saline with Tween-80
[4] = dose: 100.0 mg/kg/injection, schedule: Q04DX003 (ip), vehicle: saline with Tween-80
[5] = dose: 200.0 mg/kg/injection, schedule: Q01DX009 (ip), vehicle: saline with Tween-80
[6] = dose: 200.0 mg/kg/injection, schedule: Q04DX003 (ip), vehicle: saline with Tween-80
[7] = dose: 400.0 mg/kg/injection, schedule: Q01DX009 (ip), vehicle: saline with Tween-80
[8] = dose: 400.0 mg/kg/injection, schedule: Q04DX003 (ip), vehicle: saline with Tween-80
[9] = dose: 100.0 mg/kg/injection, schedule: Q01DX009 (ip), vehicle: Klucel (hydroxypropylcellulose) (HPC)
[10] = dose: 100.0 mg/kg/injection, schedule: Q04DX003 (ip), vehicle: Klucel (hydroxypropylcellulose) (HPC)
[11] = dose: 200.0 mg/kg/injection, schedule: Q01DX009 (ip), vehicle: Klucel (hydroxypropylcellulose) (HPC)
[12] = dose: 200.0 mg/kg/injection, schedule: Q04DX003 (ip), vehicle: Klucel (hydroxypropylcellulose) (HPC)
[13] = dose: 400.0 mg/kg/injection, schedule: Q01DX009 (ip), vehicle: Klucel (hydroxypropylcellulose) (HPC)
[14] = dose: 400.0 mg/kg/injection, schedule: Q04DX003 (ip), vehicle: Klucel (hydroxypropylcellulose) (HPC)
[15] = dose: 100.0 mg/kg/injection, schedule: Q04DX002 (ip), vehicle: saline with Tween-80
[16] = dose: 200.0 mg/kg/injection, schedule: Q04DX002 (ip), vehicle: saline with Tween-80
[17] = dose: 400.0 mg/kg/injection, schedule: Q04DX002 (ip), vehicle: saline with Tween-80

Measured: T/C

CN=C(N/N=C(C)\C=N\NC(=NC)N(C)C)N(C)C
inactive: dose: 15.0 mg/kg/injection, schedule: Q01DX Z (ip), vehicle: saline 90 % of control | dose: 30.0 mg/kg/injection, schedule: Q01DX Z (ip), vehicle: saline 106 % of control | dose: 60.0 mg/kg/injection, schedule: Q01DX Z (ip), vehicle: saline 95 % of control and 98 % of control | dose: 120.0 mg/kg/injection, schedule: Q01DX Z (ip), vehicle: saline 97 % of control and 101 % of control | dose: 120.0 mg/kg/injection, schedule: Q01DX Z (oral), vehicle: saline 96 % of control | dose: 240.0 mg/kg/injection, schedule: Q01DX Z (ip), vehicle: saline 95 % of control | dose: 240.0 mg/kg/injection, schedule: Q01DX Z (oral), vehicle: saline 91 % of control | dose: 960.0 mg/kg/injection, schedule: Q01DX Z (oral), vehicle: saline 94 % of control

O=C(O)Cc1ccc(Cl)c(Cl)c1
inactive: dose: 50.0 mg/kg/injection, schedule: Q01DX009 (ip), vehicle: saline 94 % of control | [1] 105 % of control | [2] 108 % of control

Cc1cccc(Nc2cc(C)nc(N)n2)c1
inactive: dose: 25.0 mg/kg/injection, schedule: Q01DX Z (ip), vehicle: methylcellulose (MC) 105 % of control | dose: 50.0 mg/kg/injection, schedule: Q01DX Z (ip), vehicle: methylcellulose (MC) 100 % of control

COC(=O)c1cc(NC(=O)Nc2ccc(F)c(Cl)c2)cc(C(=O)OC)c1
inactive: [1] 98 % of control | [2] 98 % of control | dose: 400.0 mg/kg/injection, schedule: Q01DX009 (ip), vehicle: saline 102 % of control

CCC(CCl)NC1CCCCC1 (stereo not given)
inactive: dose: 75.0 mg/kg/injection, schedule: Q01DX001 (ip), vehicle: saline 106 % of control | dose: 150.0 mg/kg/injection, schedule: Q01DX001 (ip), vehicle: saline 106 % of control

CCCCCCCCCCCCCCCCOc1ccc(C(C)(C)C)cc1
inactive: dose: 100.0 mg/kg/injection, schedule: Q01DX001 (ip), vehicle: Klucel (hydroxypropylcellulose) (HPC) 93 % of control | dose: 200.0 mg/kg/injection, schedule: Q01DX001 (ip), vehicle: Klucel (hydroxypropylcellulose) (HPC) 93 % of control | dose: 400.0 mg/kg/injection, schedule: Q01DX001 (ip), vehicle: Klucel (hydroxypropylcellulose) (HPC) 93 % of control

CC(=O)N1C(=O)N(Cl)C(=O)C1(C)c1cccs1 (stereo not given)
inactive: [3] 107 % of control | [4] 105 % of control | [5] 101 % of control | [6] 103 % of control | [7] 93 % of control | [8] 106 % of control

COC(=O)CNC(=O)OCc1ccccc1
inactive: [9] 108 % of control | [10] 101 % of control | [11] 97 % of control | [12] 101 % of control | [13] 96 % of control | [14] 98 % of control

Cc1c(C(C)(C)c2ccccc2)n(C)c2ccc(C(C)(C)c3ccccc3)cc12
inactive: dose: 50.0 mg/kg/injection, schedule: Q01DX001 (ip), vehicle: other 91 % of control | dose: 100.0 mg/kg/injection, schedule: Q01DX001 (ip), vehicle: other 91 % of control | dose: 200.0 mg/kg/injection, schedule: Q01DX001 (ip), vehicle: other 96 % of control | dose: 400.0 mg/kg/injection, schedule: Q01DX001 (ip), vehicle: other 93 % of control

Cc1cc(C)n(/N=C/c2ccccc2[N+](=O)[O-])c(=O)c1C#N
inactive: [9] 91 % of control | [10] 102 % of control | [11] 92 % of control | [12] 93 % of control | [13] 92 % of control | [14] 96 % of control

Cc1ccc(S(=O)(=O)/C=C(/I)C(=O)c2ccccc2)cc1
inactive: dose: 100.0 mg/kg/injection, schedule: Q01DX001 (ip), vehicle: saline 95 % of control | dose: 200.0 mg/kg/injection, schedule: Q01DX001 (ip), vehicle: saline 93 % of control | dose: 400.0 mg/kg/injection, schedule: Q01DX001 (ip), vehicle: saline 95 % of control

CC(=O)Nc1ccc2c(c1)/C(=N/O)c1ccccc1-2
inactive: dose: 100.0 mg/kg/injection, schedule: Q04DX003 (ip), vehicle: saline 97 % of control | dose: 200.0 mg/kg/injection, schedule: Q04DX003 (ip), vehicle: saline 89 % of control | dose: 400.0 mg/kg/injection, schedule: Q04DX003 (ip), vehicle: saline 94 % of control

CC(C)(C)N1C(=O)N(C(C)(C)C)C1=O
inactive: [3] 91 % of control | [10] 113 % of control | [5] 94 % of control | [12] 102 % of control | [7] 93 % of control | [14] 109 % of control

O=C1c2ccccc2-c2cc(Cl)cc(Cl)c21
inactive: dose: 100.0 mg/kg/injection, schedule: Q01DX001 (ip), vehicle: carboxymethylcellulose (CMC) 95 % of control | dose: 200.0 mg/kg/injection, schedule: Q01DX001 (ip), vehicle: carboxymethylcellulose (CMC) 96 % of control | dose: 400.0 mg/kg/injection, schedule: Q01DX001 (ip), vehicle: carboxymethylcellulose (CMC) 102 % of control

CC1CC(C)(C)C/C1=N/Nc1ccc([N+](=O)[O-])cc1[N+](=O)[O-] (stereo not given)
inactive: [15] 97 % of control | [16] 94 % of control | [17] 87 % of control

COc1ccccc1C1(O)c2ccccc2Sc2cccc(OC)c21 (stereo not given)
inactive: [4] 104 % of control | [6] 95 % of control | [8] 98 % of control

CNc1cc(N2CCCC2)ccn1
inactive: dose: 5.0 mg/kg/injection, schedule: Q01DX001 (ip), vehicle: saline 104 % of control | dose: 10.0 mg/kg/injection, schedule: Q01DX001 (ip), vehicle: saline 110 % of control

N#C/C(=C\C=C\C1CCCCC1)C1CCC([N+](=O)[O-])CC1 (stereo not given)
inactive: [15] 105 % of control | [16] 94 % of control | [17] 91 % of control

COc1cc(C(C)=O)cc(OC)c1Oc1cc(OC)c(OC)c(OC)c1C(C)=O
inactive: [4] 95 % of control | [6] 97 % of control | [8] 101 % of control

CCOC(=O)C(C(C)=O)C(=O)OCC
inactive: dose: 25.0 mg/kg/injection, schedule: Q01DX009 (ip), vehicle: other 101 % of control | dose: 50.0 mg/kg/injection, schedule: Q01DX009 (ip), vehicle: other 103 % of control | dose: 100.0 mg/kg/injection, schedule: Q01DX009 (ip), vehicle: other 109 % of control | dose: 200.0 mg/kg/injection, schedule: Q01DX009 (ip), vehicle: other 100 % of control | dose: 400.0 mg/kg/injection, schedule: Q01DX009 (ip), vehicle: other 95 % of control

C=CCCCCCCCCC(=O)N/N=C/c1ccccc1OC
inactive: dose: 100.0 mg/kg/injection, schedule: Q04DX002 (ip), vehicle: Klucel (hydroxypropylcellulose) (HPC) 110 % of control | dose: 200.0 mg/kg/injection, schedule: Q04DX002 (ip), vehicle: Klucel (hydroxypropylcellulose) (HPC) 104 % of control | dose: 400.0 mg/kg/injection, schedule: Q04DX002 (ip), vehicle: Klucel (hydroxypropylcellulose) (HPC) 110 % of control

CCN(CC)CCCCNc1ccc(NCCCCN(CC)CC)c2c1C(=O)c1ccccc1C2=O
inactive: dose: 25.0 mg/kg/injection, schedule: Q04DX002 (ip), vehicle: alcohol 106 % of control | dose: 50.0 mg/kg/injection, schedule: Q04DX002 (ip), vehicle: alcohol 95 % of control | dose: 100.0 mg/kg/injection, schedule: Q04DX002 (ip), vehicle: alcohol 92 % of control

COC(=O)/C=C(\C(=O)OC)N1CCCCC1
inactive: dose: 18.75 mg/kg/injection, schedule: Q01DX009 (ip), vehicle: saline with Tween-80 98 % of control | dose: 37.5 mg/kg/injection, schedule: Q01DX009 (ip), vehicle: saline with Tween-80 101 % of control | dose: 75.0 mg/kg/injection, schedule: Q01DX009 (ip), vehicle: saline with Tween-80 91 % of control | [3] 107 % of control

Cc1cc(C(=O)C(=O)O)c(CN2C(=O)c3ccccc3C2=O)c(=O)n1C
inactive: dose: 100.0 mg/kg/injection, schedule: Q01DX001 (ip), vehicle: saline with Tween-80 97 % of control | dose: 200.0 mg/kg/injection, schedule: Q01DX001 (ip), vehicle: saline with Tween-80 107 % of control | dose: 400.0 mg/kg/injection, schedule: Q01DX001 (ip), vehicle: saline with Tween-80 97 % of control
